This is an account of results in patent publication US10344060B2 (priority 2013, dated 2019).

What all share (assay): cell-based
Common to all, as to assay type: cell-based

The target of one test is hNav1.7 (Homo sapiens, UniProt Q15858). Particulars: Table 12; PatchXpress, tonic block; read-out: PX hNav1.7 Tonic IC50.
A further test addresses hNav1.6 (Homo sapiens, UniProt Q9UQD0). As to conditions: Table 15; for Nav1.6/Nav1.7: ratio of PX tonic IC50 values; for IC50: read-out: PX hNav1.6 Tonic IC50.
For a further test, the target named is hNav1.4 (Homo sapiens, UniProt P35499). Particulars: Table 12; for IC50: PatchXpress, tonic block, read-out: PX hNav1.4 Tonic IC50; for Nav1.4/Nav1.7: ratio of PX tonic IC50 values.

Chain of hNav1.7 (Q15858 whole entry): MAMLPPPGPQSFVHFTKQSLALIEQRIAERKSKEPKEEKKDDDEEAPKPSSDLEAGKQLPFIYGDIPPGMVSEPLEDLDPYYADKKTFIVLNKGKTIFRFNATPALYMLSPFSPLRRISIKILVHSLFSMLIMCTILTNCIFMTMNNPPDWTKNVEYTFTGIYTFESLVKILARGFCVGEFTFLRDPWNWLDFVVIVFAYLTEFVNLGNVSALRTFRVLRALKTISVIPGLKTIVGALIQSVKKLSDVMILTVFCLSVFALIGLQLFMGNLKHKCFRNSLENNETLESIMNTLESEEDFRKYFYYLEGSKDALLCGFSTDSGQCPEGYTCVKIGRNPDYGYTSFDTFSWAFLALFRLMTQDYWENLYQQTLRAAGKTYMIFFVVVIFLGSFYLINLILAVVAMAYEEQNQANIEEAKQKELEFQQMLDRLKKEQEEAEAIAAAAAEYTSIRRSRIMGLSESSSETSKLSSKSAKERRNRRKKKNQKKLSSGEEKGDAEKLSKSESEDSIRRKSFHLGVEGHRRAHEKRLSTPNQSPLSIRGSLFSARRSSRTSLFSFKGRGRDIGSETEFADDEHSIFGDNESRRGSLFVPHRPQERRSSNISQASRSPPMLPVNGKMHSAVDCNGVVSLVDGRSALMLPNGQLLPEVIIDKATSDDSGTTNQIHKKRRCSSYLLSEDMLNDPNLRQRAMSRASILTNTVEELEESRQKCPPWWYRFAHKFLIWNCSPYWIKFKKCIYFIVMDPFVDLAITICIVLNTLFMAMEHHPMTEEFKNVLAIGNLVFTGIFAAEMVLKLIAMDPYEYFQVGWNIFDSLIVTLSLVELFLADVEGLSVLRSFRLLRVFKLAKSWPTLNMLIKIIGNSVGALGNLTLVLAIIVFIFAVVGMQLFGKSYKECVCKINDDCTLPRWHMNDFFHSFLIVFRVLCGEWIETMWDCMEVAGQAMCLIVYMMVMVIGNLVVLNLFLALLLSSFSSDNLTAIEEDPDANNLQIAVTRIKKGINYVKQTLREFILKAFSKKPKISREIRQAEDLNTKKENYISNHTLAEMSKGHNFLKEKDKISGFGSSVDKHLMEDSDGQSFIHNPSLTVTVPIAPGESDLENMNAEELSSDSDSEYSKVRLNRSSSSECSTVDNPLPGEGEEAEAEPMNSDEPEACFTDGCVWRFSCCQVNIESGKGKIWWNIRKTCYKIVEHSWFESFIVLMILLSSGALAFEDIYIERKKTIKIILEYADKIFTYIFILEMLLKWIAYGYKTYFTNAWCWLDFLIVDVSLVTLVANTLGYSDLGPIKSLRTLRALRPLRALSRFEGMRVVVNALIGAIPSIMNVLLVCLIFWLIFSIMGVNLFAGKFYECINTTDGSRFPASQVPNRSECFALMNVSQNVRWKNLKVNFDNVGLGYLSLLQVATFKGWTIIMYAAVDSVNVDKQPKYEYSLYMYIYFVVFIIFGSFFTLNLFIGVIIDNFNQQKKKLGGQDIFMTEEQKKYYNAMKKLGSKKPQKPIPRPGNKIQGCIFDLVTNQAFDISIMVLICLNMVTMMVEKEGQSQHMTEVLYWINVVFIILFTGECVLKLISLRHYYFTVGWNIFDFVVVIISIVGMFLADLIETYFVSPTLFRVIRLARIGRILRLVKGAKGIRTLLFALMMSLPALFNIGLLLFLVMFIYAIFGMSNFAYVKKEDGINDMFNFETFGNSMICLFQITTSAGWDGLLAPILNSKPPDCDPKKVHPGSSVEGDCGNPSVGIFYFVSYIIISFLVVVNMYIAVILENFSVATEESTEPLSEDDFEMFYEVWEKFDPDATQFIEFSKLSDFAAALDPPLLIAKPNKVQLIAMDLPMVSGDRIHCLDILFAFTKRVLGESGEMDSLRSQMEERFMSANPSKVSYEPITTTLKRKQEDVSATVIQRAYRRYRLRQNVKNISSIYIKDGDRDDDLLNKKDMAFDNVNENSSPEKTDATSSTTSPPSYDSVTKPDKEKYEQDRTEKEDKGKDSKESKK
Chain of hNav1.6 (Q9UQD0 whole entry): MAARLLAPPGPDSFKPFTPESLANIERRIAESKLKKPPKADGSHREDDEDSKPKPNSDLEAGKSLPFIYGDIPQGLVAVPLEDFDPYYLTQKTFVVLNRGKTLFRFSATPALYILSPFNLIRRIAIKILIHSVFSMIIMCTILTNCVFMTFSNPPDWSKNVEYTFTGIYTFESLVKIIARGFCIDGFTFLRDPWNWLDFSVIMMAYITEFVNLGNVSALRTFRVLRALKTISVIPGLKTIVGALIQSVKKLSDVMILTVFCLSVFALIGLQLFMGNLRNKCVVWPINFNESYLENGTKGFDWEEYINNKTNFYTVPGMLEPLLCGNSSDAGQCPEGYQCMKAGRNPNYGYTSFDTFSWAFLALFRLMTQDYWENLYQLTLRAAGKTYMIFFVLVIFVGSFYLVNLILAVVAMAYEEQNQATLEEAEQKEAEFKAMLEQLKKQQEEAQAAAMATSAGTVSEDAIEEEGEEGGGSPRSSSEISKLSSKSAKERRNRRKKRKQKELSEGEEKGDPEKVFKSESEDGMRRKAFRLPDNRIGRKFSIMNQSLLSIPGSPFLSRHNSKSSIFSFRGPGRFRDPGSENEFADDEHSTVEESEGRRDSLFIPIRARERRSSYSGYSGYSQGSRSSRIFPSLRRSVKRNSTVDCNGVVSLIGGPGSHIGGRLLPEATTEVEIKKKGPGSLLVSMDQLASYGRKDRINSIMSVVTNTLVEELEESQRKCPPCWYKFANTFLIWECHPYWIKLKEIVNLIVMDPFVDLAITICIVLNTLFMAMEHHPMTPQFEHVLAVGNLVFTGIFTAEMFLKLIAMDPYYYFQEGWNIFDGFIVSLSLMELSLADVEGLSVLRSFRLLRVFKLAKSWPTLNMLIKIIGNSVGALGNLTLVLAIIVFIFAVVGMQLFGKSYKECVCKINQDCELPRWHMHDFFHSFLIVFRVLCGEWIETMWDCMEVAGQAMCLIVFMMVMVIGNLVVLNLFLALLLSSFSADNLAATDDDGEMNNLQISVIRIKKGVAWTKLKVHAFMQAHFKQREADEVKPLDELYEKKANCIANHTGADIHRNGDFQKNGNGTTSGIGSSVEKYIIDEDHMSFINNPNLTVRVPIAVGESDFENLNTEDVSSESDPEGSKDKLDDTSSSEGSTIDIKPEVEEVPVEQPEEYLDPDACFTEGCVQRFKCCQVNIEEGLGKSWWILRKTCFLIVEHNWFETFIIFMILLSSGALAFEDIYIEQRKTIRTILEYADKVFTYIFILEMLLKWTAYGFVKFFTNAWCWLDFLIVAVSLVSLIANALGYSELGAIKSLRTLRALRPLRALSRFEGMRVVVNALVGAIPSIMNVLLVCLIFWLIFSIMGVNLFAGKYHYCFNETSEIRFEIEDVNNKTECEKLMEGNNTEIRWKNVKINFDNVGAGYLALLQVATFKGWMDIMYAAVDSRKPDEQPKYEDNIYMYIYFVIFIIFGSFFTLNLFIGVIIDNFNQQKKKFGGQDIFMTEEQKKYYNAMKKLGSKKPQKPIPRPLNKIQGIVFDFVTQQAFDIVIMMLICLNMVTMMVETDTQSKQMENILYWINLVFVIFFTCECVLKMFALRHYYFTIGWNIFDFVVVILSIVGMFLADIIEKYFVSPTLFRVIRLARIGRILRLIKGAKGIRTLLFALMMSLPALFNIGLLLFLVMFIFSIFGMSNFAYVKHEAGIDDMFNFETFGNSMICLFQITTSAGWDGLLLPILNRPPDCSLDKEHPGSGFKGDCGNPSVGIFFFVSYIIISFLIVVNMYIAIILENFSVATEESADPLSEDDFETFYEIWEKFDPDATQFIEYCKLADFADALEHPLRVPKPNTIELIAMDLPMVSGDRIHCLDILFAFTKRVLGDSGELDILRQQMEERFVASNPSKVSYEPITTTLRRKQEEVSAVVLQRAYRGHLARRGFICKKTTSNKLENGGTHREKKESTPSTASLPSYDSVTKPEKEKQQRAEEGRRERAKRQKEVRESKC

What is called IC50 is the concentration that inhibits the measured activity by half. For the compound `C#CC[C@H](N)C(=O)N[C@@H](Cc1ccc(O)cc1)C(=O)N[C@H]1CSSC[C@@H]2NC(=O)[C@@H]3CSSC[C@@H](C(=O)N[C@@H](CCCNC(=N)N)C(=O)N[C@@H](CCCCN)C(=O)N[C@@H](CCC(=O)O)C(=O)N[C@H](C(N)=O)[C@@H](C)CC)NC(=O)[C@H](Cc4c[nH]c5ccccc45)NC(=O)[C@H](CC(C)C)NC(=O)[C@H](CCCCN)NC(=O)[C@H](CSSC[C@H](NC(=O)[C@H]([C@@H](C)O)NC(=O)[C@H](Cc4c[nH]c5ccccc45)NC(=O)[C@H](CCCC)NC(=O)[C@H](Cc4c[nH]c5ccccc45)NC(=O)[C@H](CCCCN)NC(=O)[C@H](CCC(N)=O)NC1=O)C(=O)N[C@@H](CC(=O)O)C(=O)N[C@@H](CO)C(=O)N[C@@H](CCCCN)C(=O)N[C@@H](CCCNC(=N)N)C(=O)N[C@@H](C)C(=O)N3)NC(=O)[C@H](CCCCN)NC(=O)[C@H](CC(C)C)NC(=O)CNC(=O)[C@H](CCC(=O)O)NC2=O` [compound 721], the IC50 at hNav1.7 was found to be 0.000519 µM; on hNav1.6, 0.245 µM; at hNav1.4 it was 0.185 µM. At hNav1.6, the Nav1.6/Nav1.7 turned out to be 471. Also, the Nav1.4/Nav1.7 at hNav1.4 is reported as 357.
The matching figures for `C#CC[C@H](N)C(=O)N[C@@H](Cc1ccc(O)cc1)C(=O)N[C@H]1CSSC[C@@H]2NC(=O)[C@@H]3CSSC[C@@H](C(=O)N[C@@H](CCCNC(=N)N)C(=O)N[C@@H](CCCCN)C(=O)N[C@@H](CC(=O)O)C(=O)N[C@H](C(N)=O)[C@@H](C)CC)NC(=O)[C@H](Cc4c[nH]c5ccccc45)NC(=O)[C@H](CC(C)C)NC(=O)[C@H](CCCCN)NC(=O)[C@H](CSSC[C@H](NC(=O)[C@H]([C@@H](C)O)NC(=O)[C@H](Cc4c[nH]c5ccccc45)NC(=O)[C@H](CCCC)NC(=O)[C@H](Cc4c[nH]c5ccccc45)NC(=O)[C@H](CCCCN)NC(=O)[C@H](CCC(N)=O)NC1=O)C(=O)N[C@@H](CC(=O)O)C(=O)N[C@@H](CO)C(=O)N[C@@H](CCCCN)C(=O)N[C@@H](CCCNC(=N)N)C(=O)N[C@@H](C)C(=O)N3)NC(=O)[C@H](CCCNC(=N)N)NC(=O)[C@H](CC(C)C)NC(=O)CNC(=O)[C@H](CCC(=O)O)NC2=O` [compound 723]: 0.00598 µM, 1.62 µM, 0.0784 µM, 270 and 13.
The matching figures for `C#CC[C@@H]1NC(=O)[C@@H]2CSSC[C@H](NC(=O)[C@H](Cc3ccc(O)cc3)NC(=O)[C@@H](N)CC#N)C(=O)N[C@@H](CCC(N)=O)C(=O)N[C@@H](CCCCN)C(=O)N[C@@H](Cc3c[nH]c4ccccc34)C(=O)N[C@@H](CCCC)C(=O)N[C@@H](Cc3c[nH]c4ccccc34)C(=O)N[C@@H]([C@@H](C)O)C(=O)N[C@H]3CSSC[C@H](NC(=O)[C@H](CCCNC(=N)N)NC(=O)[C@H](CC(C)C)NC(=O)CNC1=O)C(=O)N[C@@H](CCCCN)C(=O)N[C@@H](CC(C)C)C(=O)N[C@@H](Cc1c[nH]c4ccccc14)C(=O)N[C@H](C(=O)N[C@@H](CCCNC(=N)N)C(=O)N[C@@H](CCCCN)C(=O)N[C@@H](CCC(=O)O)C(=O)N[C@H](C(N)=O)[C@@H](C)CC)CSSC[C@H](NC(=O)[C@H](C)NC(=O)[C@H](CCCNC(=N)N)NC(=O)[C@H](CCC(=O)O)NC(=O)[C@H](CO)NC(=O)[C@H](CC(=O)O)NC3=O)C(=O)N2` [compound 732]: 0.00087 µM, 1.72 µM, 0.253 µM, 1972 and 291.
The matching figures for `C#CC[C@@H]1NC(=O)[C@@H]2CSSC[C@H](NC(=O)[C@H](Cc3ccc(O)cc3)NC(=O)[C@@H](N)CC#N)C(=O)N[C@@H](CCC(N)=O)C(=O)N[C@@H](CCCCN)C(=O)N[C@@H](Cc3c[nH]c4ccccc34)C(=O)N[C@@H](CCCC)C(=O)N[C@@H](Cc3c[nH]c4ccccc34)C(=O)N[C@@H]([C@@H](C)O)C(=O)N[C@H]3CSSC[C@H](NC(=O)[C@H](CCCNC(=N)N)NC(=O)[C@H](CC(C)C)NC(=O)CNC1=O)C(=O)N[C@@H](CCCCN)C(=O)N[C@@H](CC(C)C)C(=O)N[C@@H](Cc1c[nH]c4ccccc14)C(=O)N[C@H](C(=O)N[C@@H](CCCNC(=N)N)C(=O)N[C@@H](CCCCN)C(=O)N[C@@H](CCC(=O)O)C(=O)N[C@H](C(N)=O)[C@@H](C)CC)CSSC[C@H](NC(=O)[C@H](CCC(=O)O)NC(=O)[C@H](CCCNC(=N)N)NC(=O)[C@H](CCCCN)NC(=O)[C@H](CO)NC(=O)[C@H](CC(=O)O)NC3=O)C(=O)N2` [compound 733]: 0.00119 µM, 0.175 µM, 0.13 µM, 147 and 109.
Consider `C#CC[C@H](NC(=O)[C@@H](N)CCC(=O)O)C(=O)N[C@@H](Cc1ccc(O)cc1)C(=O)N[C@H]1CSSC[C@@H]2NC(=O)[C@@H]3CSSC[C@@H](C(=O)N[C@@H](CCCNC(=N)N)C(=O)N[C@@H](CCCCN)C(=O)N[C@@H](CCC(=O)O)C(=O)N[C@H](C(N)=O)[C@@H](C)CC)NC(=O)[C@H](Cc4c[nH]c5ccccc45)NC(=O)[C@H](CC(C)C)NC(=O)[C@H](CCCCN)NC(=O)[C@H](CSSC[C@H](NC(=O)[C@H]([C@@H](C)O)NC(=O)[C@H](Cc4c[nH]c5ccccc45)NC(=O)[C@H](CCCC)NC(=O)[C@H](Cc4c[nH]c5ccccc45)NC(=O)[C@H](CCCCN)NC(=O)[C@H](CCC(N)=O)NC1=O)C(=O)N[C@@H](CC(=O)O)C(=O)N[C@@H](CCC(=O)O)C(=O)N[C@@H](CCCCN)C(=O)N[C@@H](CCCNC(=N)N)C(=O)N[C@@H](C)C(=O)N3)NC(=O)[C@H](CCCNC(=N)N)NC(=O)[C@H](CC(C)C)NC(=O)CNC(=O)[C@H](CCC(=O)O)NC2=O` [compound 734], for which the concentration for half-maximal inhibition (IC50) on hNav1.7 stood at 0.00233 µM. Moreover, at hNav1.6, the Nav1.6/Nav1.7 is 1233 and the IC50 stood at 2.87 µM. Besides, at hNav1.4, the IC50 came out at 1.05 µM and the Nav1.4/Nav1.7 worked out at 452.
With `C#CC[C@H](NC(=O)[C@@H](N)CCC(=O)O)C(=O)N[C@H]1CSSC[C@@H]2NC(=O)[C@@H]3CSSC[C@@H](C(=O)N[C@@H](CCCNC(=N)N)C(=O)N[C@@H](CCCCN)C(=O)N[C@@H](CCC(=O)O)C(=O)N[C@H](C(N)=O)[C@@H](C)CC)NC(=O)[C@H](Cc4c[nH]c5ccccc45)NC(=O)[C@H](CC(C)C)NC(=O)[C@H](CCCCN)NC(=O)[C@H](CSSC[C@H](NC(=O)[C@H]([C@@H](C)O)NC(=O)[C@H](Cc4c[nH]c5ccccc45)NC(=O)[C@H](CCCC)NC(=O)[C@H](Cc4c[nH]c5ccccc45)NC(=O)[C@H](CCCCN)NC(=O)[C@H](CCC(N)=O)NC1=O)C(=O)N[C@@H](CC(=O)O)C(=O)N[C@@H](CCC(=O)O)C(=O)N[C@@H](CCCCN)C(=O)N[C@@H](CCCNC(=N)N)C(=O)N[C@@H](C)C(=O)N3)NC(=O)[C@H](CCCNC(=N)N)NC(=O)[C@H](CC(C)C)NC(=O)CNC(=O)[C@H](CCC(=O)O)NC2=O` [compound 736], the IC50 at hNav1.7 was 0.00146 µM; at hNav1.6, 2.52 µM; at hNav1.4 it was 0.547 µM. Moreover, the Nav1.6/Nav1.7 on hNav1.6 is listed as 1730. The Nav1.4/Nav1.7 on hNav1.4 is recorded as 375.
